Measured values published in US20210207064A1, “COMPOUND FOR RESTORING CONTAMINATED SOIL OR CONTAMINATED WATER” (FNG RESEARCH CO., LTD., priority 2018, published 2021).

Assays:
[1] = Heavy metal removal ability test in contaminated soil (ICP-MS), arsenic; settings: for Arsenic (As) Adsorption amount: contaminated soil; for Arsenic (As) Adsorption rate: relative to EDTA control
Experimental: (§1) (1) Preparation of Soil Contaminated with Heavy Metal
(§2) After collecting and pulverizing uncontaminated soil, fine particles obtained by using a mesh were mixed with the aqueous heavy metal solution to prepare soil samples contaminated with heavy metals.
(§3) Each 3 ml of the prepared aqueous solution was added to a soil sample contaminated with heavy metals and mixed for 5 minutes.
(§4) 50 ml of distilled water was added to the contaminated soil mixed with the aqueous solution for restoring soil, stirred for 20 minutes, and settled for 1 hour, and a supernatant was prepared as a sample solution.
(§5) The prepared sample solution was analyzed for the heavy metal component using an Inductively Coupled Plasma Mass Spectrometer (ICP-MS) (Xseries™ 2, Thermo Fisher Scientific, UK).
(§6) Adsorption rate of heavy metals (%)=(Adsorption amount of Embodiment/Adsorption amount of Control)×100 Equation 1

[2] = Heavy metal removal ability test in contaminated soil around a factory (WAK-Me test kit); settings: 1.0 wt % aqueous solution, colour comparison test kit
Experimental: The contaminated soil around the factory in the industrial complex was collected, pulverized, and meshed to prepare fine particles of soil samples.
Each 3 ml of aqueous solutions for restoring soil was added to soil samples and mixed for 5 minutes.

[3] = Heavy metal removal ability test in contaminated soil (ICP-MS), cadmium; settings: for Cadmium (Cd) Adsorption amount: contaminated soil; for Cadmium (Cd) Adsorption rate: relative to EDTA control
Experimental: as §1, §2, §3, §4, §5, §6

[4] = Heavy metal removal ability test in contaminated soil (ICP-MS), nickel; settings: for Nickel (Ni) Adsorption amount: contaminated soil; for Nickel (Ni) Adsorption rate: relative to EDTA control
Experimental: as §1, §2, §3, §4, §5, §6

[5] = Formaldehyde (formalin) removing ability test (GC); settings: 2.0% formaldehyde solution, 3 molar equivalents of compound, room temperature; for Formaldehyde GC Area, 30 min: after 30 min; for Formaldehyde GC Area, 180 min: after 180 min; for Formaldehyde GC Area, Initial: initial state
[6] = test system: human skin; assay: Skin irritation test of active ingredient (patch method, CTFA guidelines); format: in vivo; settings: 24 h patch; for Test result (number of subject) (+) / Test result (number of subject) (++) / Test result (number of subject) (±) / Test result (number of subject) (−): 20 people; for Test result (number of subject) (+): (+) apparent reddening; for Test result (number of subject) (++): (++) more reddened and swollen; for Test result (number of subject) (±): (±) slightly reddish; for Test result (number of subject) (−): (−) no erythema
Experimental: A filter paper disk was placed in an 8 mm diameter, 10 panels of pin chamber.
After 24 hours, the pin chamber was removed, and skin conditions were visually observed. The degree and grade for skin irritation were calculated according to the following Equation 2, and the results are shown in Table 4 below.
[Criteria for Skin Irritation]
(−): No erythema or particularly no symptoms; (±): slightly reddish than the periphery; (+): Apparent reddening than periphery; (++): More reddened and swollen than periphery.
[Grade for Skin Irritation]
Degree of irritation 0-0.1: Grade I (unstimulated);
Degree of irritation 0.11-0.3: Grade II (weakly stimulated);
Degree of irritation 0.31-0.5: Grade III (moderately stimulated);
Degree of irritation 0.51 or more: Grade IV (strongly stimulated)

O=C(O)c1ccc(N(CCN(CCN(c2ccc(C(=O)O)cc2)c2ccc(C(=O)O)cc2)c2ccc(C(=O)O)cc2)CCN(c2ccc(C(=O)O)cc2)c2ccc(C(=O)O)cc2)cc1 [Embodiment 2, 4,4′,4″,4′″-(((ethane-1,2-diylbis((4-carboxyphenyl)azanediyl))bis(ethane-2,1-diyl))bis(azanetriyl))tetrabenzoic Acid]
Arsenic (As) Adsorption amount ([1]; content 0.5% aqueous solution): 48 ppm | Arsenic (As) Adsorption rate ([1]; content 0.5%): 192% | Arsenic (As) Adsorption amount ([1]; content 1.0% aqueous solution): 49 ppm | Arsenic (As) Adsorption rate ([1]; content 1.0%): 196% | Arsenic (As) Adsorption amount ([1]; content 2.0% aqueous solution): 53 ppm | Arsenic (As) Adsorption rate ([1]; content 2.0%): 212% | Total amount (Cu, Zn, Mn, Ni, Cd) [2]: ≤5 ppm | Cadmium (Cd) Adsorption amount ([3]; content 0.5% aqueous solution): 75 ppm | Cadmium (Cd) Adsorption rate ([3]; content 0.5%): 183% | Cadmium (Cd) Adsorption amount ([3]; content 1.0% aqueous solution): 86 ppm | Cadmium (Cd) Adsorption rate ([3]; content 1.0%): 210% | Cadmium (Cd) Adsorption amount ([3]; content 2.0% aqueous solution): 88 ppm | Cadmium (Cd) Adsorption rate ([3]; content 2.0%): 215% | Nickel (Ni) Adsorption amount ([4]; content 0.5% aqueous solution): 94 ppm | Nickel (Ni) Adsorption rate ([4]; content 0.5%): 192% | Nickel (Ni) Adsorption amount ([4]; content 1.0% aqueous solution): 96 ppm | Nickel (Ni) Adsorption rate ([4]; content 1.0%): 196% | Nickel (Ni) Adsorption amount ([4]; content 2.0% aqueous solution): 103 ppm | Nickel (Ni) Adsorption rate ([4]; content 2.0%): 210% | Formaldehyde GC Area, 30 min [5]: 0.168 mAU*min | Formaldehyde GC Area, 180 min [5]: 0 mAU*min | Formaldehyde GC Area, Initial [5]: 0.305 mAU*min | Test result (number of subject) (+) ([6]; content 0.1 wt %): 0 | Test result (number of subject) (++) ([6]; content 0.1 wt %): 0 | Test result (number of subject) (±) ([6]; content 0.1 wt %): 0 | Test result (number of subject) (−) ([6]; content 0.1 wt %): 20 | Degree of irritation ([6]; content 0.1 wt %): 0 | Grade for skin irritation ([6]; content 0.1 wt %): I (Degree of irritation 0-0.1: Grade I (unstimulated)) | Test result (number of subject) (+) ([6]; content 0.5 wt %): 0 | Test result (number of subject) (++) ([6]; content 0.5 wt %): 0 | Test result (number of subject) (±) ([6]; content 0.5 wt %): 0 | Test result (number of subject) (−) ([6]; content 0.5 wt %): 20 | Degree of irritation ([6]; content 0.5 wt %): 0 | Grade for skin irritation ([6]; content 0.5 wt %): I (Degree of irritation 0-0.1: Grade I (unstimulated)) | Test result (number of subject) (+) ([6]; content 1.0 wt %): 0 | Test result (number of subject) (++) ([6]; content 1.0 wt %): 0 | Test result (number of subject) (±) ([6]; content 1.0 wt %): 1 | Test result (number of subject) (−) ([6]; content 1.0 wt %): 19 | Degree of irritation ([6]; content 1.0 wt %): 0.05 | Grade for skin irritation ([6]; content 1.0 wt %): I (Degree of irritation 0-0.1: Grade I (unstimulated))

O=C(O)c1ccc(N2CCN(c3ccc(C(=O)O)cc3)CCN(c3ccc(C(=O)O)cc3)CCN(c3ccc(C(=O)O)cc3)CC2)cc1 [Embodiment 6, 4,4′,4″,4′″-(1,4,7,10-tetraazacyclododecane-1,4,7,10-tetrayl)tetrabenzoic Acid]
Arsenic (As) Adsorption amount ([1]; content 0.5% aqueous solution): 42 ppm | Arsenic (As) Adsorption rate ([1]; content 0.5%): 168% | Arsenic (As) Adsorption amount ([1]; content 1.0% aqueous solution): 45 ppm | Arsenic (As) Adsorption rate ([1]; content 1.0%): 180% | Arsenic (As) Adsorption amount ([1]; content 2.0% aqueous solution): 48 ppm | Arsenic (As) Adsorption rate ([1]; content 2.0%): 192% | Total amount (Cu, Zn, Mn, Ni, Cd) [2]: ≤5 ppm | Cadmium (Cd) Adsorption amount ([3]; content 0.5% aqueous solution): 61 ppm | Cadmium (Cd) Adsorption rate ([3]; content 0.5%): 149% | Cadmium (Cd) Adsorption amount ([3]; content 1.0% aqueous solution): 69 ppm | Cadmium (Cd) Adsorption rate ([3]; content 1.0%): 168% | Cadmium (Cd) Adsorption amount ([3]; content 2.0% aqueous solution): 77 ppm | Cadmium (Cd) Adsorption rate ([3]; content 2.0%): 188% | Nickel (Ni) Adsorption amount ([4]; content 0.5% aqueous solution): 81 ppm | Nickel (Ni) Adsorption rate ([4]; content 0.5%): 165% | Nickel (Ni) Adsorption amount ([4]; content 1.0% aqueous solution): 83 ppm | Nickel (Ni) Adsorption rate ([4]; content 1.0%): 169% | Nickel (Ni) Adsorption amount ([4]; content 2.0% aqueous solution): 87 ppm | Nickel (Ni) Adsorption rate ([4]; content 2.0%): 178% | Formaldehyde GC Area, 30 min [5]: 0.183 mAU*min | Formaldehyde GC Area, 180 min [5]: 0 mAU*min | Formaldehyde GC Area, Initial [5]: 0.305 mAU*min | Test result (number of subject) (+) ([6]; content 0.1 wt %): 0 | Test result (number of subject) (++) ([6]; content 0.1 wt %): 0 | Test result (number of subject) (±) ([6]; content 0.1 wt %): 0 | Test result (number of subject) (−) ([6]; content 0.1 wt %): 20 | Degree of irritation ([6]; content 0.1 wt %): 0 | Grade for skin irritation ([6]; content 0.1 wt %): I (Degree of irritation 0-0.1: Grade I (unstimulated)) | Test result (number of subject) (+) ([6]; content 0.5 wt %): 0 | Test result (number of subject) (++) ([6]; content 0.5 wt %): 0 | Test result (number of subject) (±) ([6]; content 0.5 wt %): 0 | Test result (number of subject) (−) ([6]; content 0.5 wt %): 20 | Degree of irritation ([6]; content 0.5 wt %): 0 | Grade for skin irritation ([6]; content 0.5 wt %): I (Degree of irritation 0-0.1: Grade I (unstimulated)) | Test result (number of subject) (+) ([6]; content 1.0 wt %): 0 | Test result (number of subject) (++) ([6]; content 1.0 wt %): 0 | Test result (number of subject) (±) ([6]; content 1.0 wt %): 1 | Test result (number of subject) (−) ([6]; content 1.0 wt %): 19 | Degree of irritation ([6]; content 1.0 wt %): 0.05 | Grade for skin irritation ([6]; content 1.0 wt %): I (Degree of irritation 0-0.1: Grade I (unstimulated))

O=C(O)c1ccc(N2CCCN(c3ccc(C(=O)O)o3)CCN(c3ccc(C(=O)O)o3)CCCN(c3ccc(C(=O)O)o3)CC2)o1 [Embodiment 12, 5,5′,5″,5′″-(1,4,8,11-tetraazacyclotetradecane-1,4,8,11-tetrayl)tetrakis(furan-2-carboxylic Acid)]
Arsenic (As) Adsorption amount ([1]; content 0.5% aqueous solution): 41 ppm | Arsenic (As) Adsorption rate ([1]; content 0.5%): 164% | Arsenic (As) Adsorption amount ([1]; content 1.0% aqueous solution): 43 ppm | Arsenic (As) Adsorption rate ([1]; content 1.0%): 172% | Arsenic (As) Adsorption amount ([1]; content 2.0% aqueous solution): 46 ppm | Arsenic (As) Adsorption rate ([1]; content 2.0%): 184% | Total amount (Cu, Zn, Mn, Ni, Cd) [2]: ≤5 ppm | Cadmium (Cd) Adsorption amount ([3]; content 0.5% aqueous solution): 61 ppm | Cadmium (Cd) Adsorption rate ([3]; content 0.5%): 149% | Cadmium (Cd) Adsorption amount ([3]; content 1.0% aqueous solution): 67 ppm | Cadmium (Cd) Adsorption rate ([3]; content 1.0%): 163% | Cadmium (Cd) Adsorption amount ([3]; content 2.0% aqueous solution): 72 ppm | Cadmium (Cd) Adsorption rate ([3]; content 2.0%): 176% | Nickel (Ni) Adsorption amount ([4]; content 0.5% aqueous solution): 77 ppm | Nickel (Ni) Adsorption rate ([4]; content 0.5%): 157% | Nickel (Ni) Adsorption amount ([4]; content 1.0% aqueous solution): 84 ppm | Nickel (Ni) Adsorption rate ([4]; content 1.0%): 171% | Nickel (Ni) Adsorption amount ([4]; content 2.0% aqueous solution): 89 ppm | Nickel (Ni) Adsorption rate ([4]; content 2.0%): 182% | Formaldehyde GC Area, 30 min [5]: 0.170 mAU*min | Formaldehyde GC Area, 180 min [5]: 0 mAU*min | Formaldehyde GC Area, Initial [5]: 0.305 mAU*min | Test result (number of subject) (+) ([6]; content 0.1 wt %): 0 | Test result (number of subject) (++) ([6]; content 0.1 wt %): 0 | Test result (number of subject) (±) ([6]; content 0.1 wt %): 0 | Test result (number of subject) (−) ([6]; content 0.1 wt %): 20 | Degree of irritation ([6]; content 0.1 wt %): 0 | Grade for skin irritation ([6]; content 0.1 wt %): I (Degree of irritation 0-0.1: Grade I (unstimulated)) | Test result (number of subject) (+) ([6]; content 0.5 wt %): 0 | Test result (number of subject) (++) ([6]; content 0.5 wt %): 0 | Test result (number of subject) (±) ([6]; content 0.5 wt %): 0 | Test result (number of subject) (−) ([6]; content 0.5 wt %): 20 | Degree of irritation ([6]; content 0.5 wt %): 0 | Grade for skin irritation ([6]; content 0.5 wt %): I (Degree of irritation 0-0.1: Grade I (unstimulated)) | Test result (number of subject) (+) ([6]; content 1.0 wt %): 0 | Test result (number of subject) (++) ([6]; content 1.0 wt %): 0 | Test result (number of subject) (±) ([6]; content 1.0 wt %): 1 | Test result (number of subject) (−) ([6]; content 1.0 wt %): 19 | Degree of irritation ([6]; content 1.0 wt %): 0.05 | Grade for skin irritation ([6]; content 1.0 wt %): I (Degree of irritation 0-0.1: Grade I (unstimulated))

O=C(O)CN(CCN(CC(=O)O)CC(=O)O)CC(=O)O [Control (EDTA), ethylenediaminetetraacetic acid, reference compound]
Arsenic (As) Adsorption amount ([1]; content 0.5% aqueous solution): 25 ppm | Total amount (Cu, Zn, Mn, Ni, Cd) [2]: 2.0 ppm | Cadmium (Cd) Adsorption amount ([3]; content 0.5% aqueous solution): 41 ppm | Nickel (Ni) Adsorption amount ([4]; content 0.5% aqueous solution): 49 ppm
